Data: US12617752B2, “Rapidly metabolized lipid compound” (Beijing Jitai Life Sciences Ltd, priority 2023, dated 2026)

What was measured:
[1] = system: C57BL/6 mice; assay: In vivo delivery of luciferase mRNA lipid nanoparticles in mice (bioluminescence imaging); settings: intravenous, single dose 0.5 mg/kg luciferase mRNA
Outline: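 Female C57BL/6 mice, 6-8 weeks old, received luciferase mRNA lipid nanoparticles as a single intravenous dose of 0.5 mg/kg mRNA. At 6 h, D-luciferin given intraperitoneally; 10 min later, mice were imaged under isoflurane anaesthesia. Values are group mean fluorescence intensity and total photon count.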

[2] = Clearance rate of ionizable lipids in vivo (liver content by LC-MS/MS); settings: C57 WT female mice, tail vein, 100 μL unloaded LNP (0.1 mg/mL)
Protocol: The 6-8 weeks old C57 WT female mice (n=3) were injected by tail vein administration of 100 μL of unloaded LNP (0.1 mg/mL) formed from the ionizable lipid, cholesterol, DSPC, and DMG-PEG 2000 at a ratio of 50:38.5:10:1.5. The experimental animals were executed by removing the cervical vertebrae and dissected for the liver at 24 h and 72 h after administration, respectively, while the same batch of non-dosed experimental animal livers were used as a blank control group. Water was added to the liver sample for homogenization, and the protein was precipitated. The content of the ionizable lipid in the sample was quantitatively analyzed using LC-MS/MS in comparison to a calibration standard prepared from matched blank liver tissues.

[3] = Encapsulation efficiency of lipid nanoparticles (Quant-it RiboGreen RNA Assay); assay type: physicochemical; settings: lipid nanoparticles with luciferase mRNA
Outline: (§1)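 LNPs of ionizable lipid/cholesterol/phospholipid/PEG-lipid (50/38.5/10/1.5 mol%, N/P 6) were formed by microfluidic mixing with mRNA in pH 4.5 acetate, then buffer-exchanged by ultrafiltration. Size and PDI were measured by DLS. Encapsulation came from RiboGreen fluorescence (485/528 nm) in TE pH 7.5, with and without 0.5% Triton at 37 °C for 30 min.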

[4] = Particle size and PDI of lipid nanoparticles by dynamic light scattering; assay type: physicochemical; settings: lipid nanoparticles with luciferase mRNA; ionizable lipid/cholesterol/DSPC/DMG-PEG2000 50/38.5/10/1.5 mol%
Outline: as §1

Row | Compound | Percentage of cationic lipids in the liver in the total dose, 24 h after administration (%) [2] [%] | Percentage of cationic lipids in the liver in the total dose, 72 h after administration (%) [2] [%] | Encapsulation efficiency (%) [3] [%] | Particle size (nm) [4] [nm] | Particle-size distribution (PDI) [4] | Percentage of cationic lipids in the liver in the total dose, 72 h after administration (%) ([2]; listed as control group) | Total photon count in vivo at 6 hours after administration (Total Flux) [1]
1 | CCCCCCCCCOC(=O)CCCCCCCN(CCO)CCCCCCC(C)(C)C(=O)OC(CCCCCCCC)CCCCCCCC [1a] | <1 | 0 | 94.61 | 113.08 | 0.022 | – | 3.52E+10
2 | CCCCCCCCCC(=O)OCC(C)(C)CCCCCN(CCO)CCCCCCCC(=O)OC(CCCCCCCC)CCCCCCCC [1b] | 15 ± 4.2 | <1 | 89.89 | 88.59 | 0.031 | – | 9.34E+10
3 | CCCCCCCCCC(=O)OCC(C)(C)CCCCCN(CCCCO)CCCCCCCC(=O)OC(CCCCCCCC)CCCCCCCC [3b] | 12 ± 3.8 | <1 | 74.43 | 102.32 | 0.015 | – | 1.41E+11
4 | CCCCCCCCCOC(=O)CCCCCCCN(CCCO)CCCCCCC(C)(C)C(=O)OC(CCCCCCCC)CCCCCCCC [4a] | <1 | 0 | 92.87 | 103.7 | 0.005 | – | 3.25E+10
5 | CCCCCCCCCC(=O)OCC(C)(C)CCCCCN(CCO)CCCCCCCC(=O)OCCC(CCCCCC)CCCCCC [10b] | 5 ± 3.1 | <1 | 72.72 | 114.72 | 0.052 | – | 3.15E+10
6 | CCCCCCCCCC(=O)OCC(C)(C)CCCCCN(CCO)CCCCCCCC(=O)OCCCCC(CCCC)CCCC [12b] | <1 | 0 | 91.04 | 104.60 | 0.031 | – | 1.19E+10
7 | CCCCCCCCCC(=O)OCC1(CCCCCN(CCO)CCCCCCCC(=O)OCC(CCCCCCC)CCCCCCC)CC1 [22b] | 2 | <1 | 93.03 | 99.44 | 0.050 | – | 8.78E+10
8 | CCCCCCCCCCOC(=O)OCCCCCCN(CCO)CCCCCC(C)(C)COC(=O)CCC(CCCCCC)CCCCCC [26b] | 8 | <1 | 94.58 | 113.77 | 0.14 | – | 6.53E+10
9 | CCCCCCCCCOC(=O)OCCCCCCN(CCO)CCCCCCC(C)(C)C(=O)OC(CCCCCCCC)CCCCCCCC [30a] | 4 | <2 | 86.94 | 107.40 | 0.12 | – | 8.32E+10
10 | CCCCCCCCCC(=O)OCCC(C)(C)CCCCN(CCCCO)CCCCCCC(=O)OCCC(CCCCCCC)CCCCCCC [104b] | – | – | 91.51 | 135.57 | 0.09 | – | 3.20E+10
11 | CCCCCCCCCC(=O)OCCC(C)(C)CCCCCN(CCO)CCCCCCC(=O)OCC(CCCCCCCCC)CCCCCCCCC [106b] | – | – | 94.89 | 88.22 | 0.15 | – | 1.42E+11
12 | CCCCCCCCCC(=O)OCCC(C)(C)CCCCCN(CCO)CCCCCCC(=O)OCCC(CCCCCCCC)CCCCCCCC [108b] | – | – | 94.16 | 86.61 | 0.16 | – | 1.38E+11
13 | CCCCCCCCCC(=O)OCCC(C)(C)CCCCCN(CCCCO)CCCCCCC(=O)OCCC(CCCCCCCC)CCCCCCCC [109b] | – | – | 93.00 | 95.32 | 0.13 | – | 1.90E+11
14 | CCCCCCCCCCC(=O)OCCCC(C)(C)CCCN(CCCCO)CCCCCCC(=O)OCC(CCCCCCCCC)CCCCCCCCC [115b] | – | – | 93.91 | 100.25 | 0.12 | – | 3.71E+10
15 | CCCCCCCCCC(=O)OCC(C)(C)CCCCCN(CCCCO)CCCCCCCC(=O)OCC(CCCCCCC)CCCCCCC [117b] | – | – | 72.51 | 151.17 | 0.09 | – | 1.73E+10
16 | CCCCCCCCCOC(=O)C(C)(C)CCCCCCN(CCO)CCCCCCC(C)(C)C(=O)OC(CCCCCCCC)CCCCCCCC [Control group, reference compound] | 92 ± 3.5 | 89 ± 4.7 | – | – | – | about 90% | –

Second part, led by results:

Row | Percentage of cationic lipids in the liver in the total dose, 24 h after administration (%) [2] [%] | Percentage of cationic lipids in the liver in the total dose, 72 h after administration (%) [2] [%] | Encapsulation efficiency (%) [3] [%] | Particle size (nm) [4] [nm] | Particle-size distribution (PDI) [4] | Percentage of cationic lipids in the liver in the total dose, 72 h after administration (%) ([2]; listed as control group) | Compound | Total photon count in vivo at 6 hours after administration (Total Flux) [1]
17 | 8 ± 2.7 | <1 | 89.27 | 99.02 | 0.018 | – | CCCCCCCCCC(=O)OCC(C)(C)CCCCCN(CCO)CCCCCCCC(=O)OCC(CCCCCCC)CCCCCCC [13b] | 1.81E+11
18 | – | – | 94.38 | 89.73 | 0.16 | – | CCCCCCCCC(=O)OCCC(C)(C)CCCCCN(CCO)CCCCCCC(=O)OCC(CCCCCCCC)CCCCCCCC [105b] | 9.24E+10
19 | – | – | 94.05 | 88.13 | 0.16 | – | CCCCCCCCCC(=O)OCCC(C)(C)CCCCCN(CCO)CCCCCCCCC(=O)OCC(CCCCCCC)CCCCCCC [107b] | 1.98E+11
20 | – | – | 85.48 | 133.93 | 0.21 | – | CCCCCCCCC(=O)OCC(C)(C)CCCCCCN(CCO)CCCCCCC(=O)OCC(CCCCCCCC)CCCCCCCC [110b] | 1.36E+11
21 | – | – | 63.26 | 187.13 | 0.21 | – | CCCCCCCCCC(=O)OCCCC(C)(C)CCCN(CCO)CCCCCCCCC(=O)OCC(CCCCCC)CCCCCC [111b] | 3.98E+10
22 | – | – | 69.74 | 175.67 | 0.17 | – | CCCCCCCCCC(=O)OCCCC(C)(C)CCCN(CCCO)CCCCCCCCC(=O)OCC(CCCCCC)CCCCCC [112b] | 1.31E+10
23 | – | – | 88.21 | 147.03 | 0.09 | – | CCCCCCCCCC(=O)OCCCC(C)(C)CCCN(CCCCO)CCCCCCCCC(=O)OCC(CCCCCC)CCCCCC [113b] | 2.09E+10
24 | – | – | 93.55 | 103.40 | 0.13 | – | CCCCCCCCCCC(=O)OCCCC(C)(C)CCCN(CCCO)CCCCCCC(=O)OCC(CCCCCCCCC)CCCCCCCCC [114b] | 4.53E+10
25 | – | – | 90.71 | 120.13 | 0.09 | – | CCCCCCCCCCC(=O)OCCCC(C)(C)CCCN(CCCCO)CCCCCCCCC(=O)OCC(CCCCCCC)CCCCCCC [116b] | 1.96E+10
